Assay results: patent US9006250B2, “4-amino-6-(heterocyclic)picolinates and 6-amino-2-(heterocyclic)pyrimidine-4-carboxylates and their use as herbicides” (Dow AgroSciences, LLC, priority 2013, dated 2015)

What was measured:
Experiment in all cases: Post-Emergent Test II herbicidal activity
Format in all cases: in vivo
[1] = test system: TRZAS: wheat, spring (Triticum aestivum); conditions: post-emergence, 336 h, 14 days, read-out: Visual Growth Reduction (%) 14 Days After Application TRZAS; for pest or weed control at 35 g/ha: 35 g ai/ha; for pest or weed control at 70 g/ha: 70 g ai/ha; for pest or weed control at 140 g/ha: 140 g ai/ha
Description: (§1) Post-Emergent Test II: Seeds or nutlets of the desired test plant species were planted in Sun Gro Metro-Mix® 360 planting mixture, which typically has a pH of 6.0 to 6.8 and an organic matter content of about 30 percent, in plastic pots with a surface area of 64 square centimeters. When required to ensure good germination and healthy plants, a fungicide treatment and/or other chemical or physical treatment was applied. The plants were grown for 7-21 d in a greenhouse with an approximate 15 h photoperiod which was maintained at about 23-29° C. during the day and 22-28° C. during the night. Nutrients and water were added on a regular basis and supplemental lighting was provided with overhead metal halide 1000-Watt lamps as necessary. The plants were employed for testing when they reached the first or second true leaf stage.
(§2) A weighed amount, determined by the highest rate to be tested, of each test compound was placed in a 25 mL glass vial and was dissolved in 4 mL of a 97:3 v/v mixture of acetone and DMSO to obtain concentrated stock solutions. […] The concentrated stock solutions obtained were diluted with 20 mL of an aqueous mixture containing acetone, water, isopropyl alcohol, DMSO, Atplus 411F crop oil concentrate, and Triton® X-155 surfactant in a 48.5:39:10:1.5:1.0:0.02 v/v ratio to obtain spray solutions containing the highest application rates. Additional application rates were obtained by serial dilution of 12 mL of the high rate solution into a solution containing 2 mL of 97:3 v/v mixture of acetone and DMSO and 10 mL of an aqueous mixture containing acetone, water, isopropyl alcohol, DMSO, Atplus 411F crop oil concentrate, and Triton X®-155 surfactant in a 48.5:39:10:1.5:1.0:0.02 v/v ratio to obtain ½×, ¼×, ⅛× and 1/16× rates of the high rate. Compound requirements are based upon a 12 mL application volume at a rate of 187 liters per hectare (L/ha). Formulated compounds were applied to the plant material with an overhead Mandel track sprayer equipped with 8002E nozzles calibrated to deliver 187 L/ha over an application area of 0.503 square meters at a spray height of 18 inches […] above the average plant canopy height. Control plants were sprayed in the same manner with the solvent blank.
(§3) The treated plants and control plants were placed in a greenhouse as described above and watered by subirrigation to prevent wash-off of the test compounds. After 14 d, the condition of the test plants as compared with that of the untreated plants was determined visually and scored on a scale of 0 to 100 percent where 0 corresponds to no injury and 100 corresponds to complete kill.

[2] = test system: AMARE: redroot pigweed (Amaranthus retroflexus); conditions: post-emergence, 336 h, 14 days, read-out: Visual Growth Reduction (%) 14 Days After Application AMARE; for pest or weed control at 35 g/ha: 35 g ai/ha; for pest or weed control at 70 g/ha: 70 g ai/ha; for pest or weed control at 140 g/ha: 140 g ai/ha
Description: as §1, §2, §3

[3] = test system: HELAN: sunflower (Helianthus annuus); conditions: post-emergence, 336 h, 14 days, read-out: Visual Growth Reduction (%) 14 Days After Application HELAN; for pest or weed control at 35 g/ha: 35 g ai/ha; for pest or weed control at 70 g/ha: 70 g ai/ha; for pest or weed control at 140 g/ha: 140 g ai/ha
Description: as §1, §2, §3

[4] = test system: CYPES: yellow nutsedge (Cyperus esculentus); conditions: post-emergence, 336 h, 14 days, read-out: Visual Growth Reduction (%) 14 Days After Application CYPES; for pest or weed control at 35 g/ha: 35 g ai/ha; for pest or weed control at 70 g/ha: 70 g ai/ha; for pest or weed control at 140 g/ha: 140 g ai/ha
Description: as §1, §2, §3

[5] = test system: ECHCG: barnyardgrass (Echinochloa crus-galli); conditions: post-emergence, 336 h, 14 days, read-out: Visual Growth Reduction (%) 14 Days After Application ECHCG; for pest or weed control at 35 g/ha: 35 g ai/ha; for pest or weed control at 70 g/ha: 70 g ai/ha; for pest or weed control at 140 g/ha: 140 g ai/ha
Description: as §1, §2, §3

[6] = test system: CHEAL: lambsquarters (Chenopodium album); conditions: post-emergence, 336 h, 14 days, read-out: Visual Growth Reduction (%) 14 Days After Application CHEAL; for pest or weed control at 35 g/ha: 35 g ai/ha; for pest or weed control at 70 g/ha: 70 g ai/ha; for pest or weed control at 140 g/ha: 140 g ai/ha
Description: as §1, §2, §3

[7] = test system: ORYSA: rice (Oryza sativa); conditions: post-emergence, 336 h, 14 days, read-out: Visual Growth Reduction (%) 14 Days After Application ORYSA; for pest or weed control at 35 g/ha: 35 g ai/ha; for pest or weed control at 70 g/ha: 70 g ai/ha; for pest or weed control at 140 g/ha: 140 g ai/ha
Description: as §1, §2, §3

[8] = test system: ZEAMX: maize, corn (Zea mays); conditions: post-emergence, 336 h, 14 days, read-out: Visual Growth Reduction (%) 14 Days After Application ZEAMX; for pest or weed control at 35 g/ha: 35 g ai/ha; for pest or weed control at 70 g/ha: 70 g ai/ha; for pest or weed control at 140 g/ha: 140 g ai/ha
Description: as §1, §2, §3

[9] = test system: SETFA: giant foxtail (Setaria faberi); conditions: post-emergence, 336 h, 14 days, read-out: Visual Growth Reduction (%) 14 Days After Application SETFA; for pest or weed control at 35 g/ha: 35 g ai/ha; for pest or weed control at 70 g/ha: 70 g ai/ha; for pest or weed control at 140 g/ha: 140 g ai/ha
Description: as §1, §2, §3

[10] = test system: ABUTH: velvetleaf (Abutilon theophrasti); conditions: post-emergence, 336 h, 14 days, read-out: Visual Growth Reduction (%) 14 Days After Application ABUTH; for pest or weed control at 35 g/ha: 35 g ai/ha; for pest or weed control at 70 g/ha: 70 g ai/ha; for pest or weed control at 140 g/ha: 140 g ai/ha
Description: as §1, §2, §3

[11] = test system: EPHHL: wild poinsettia (Euphorbia heterophylla); conditions: post-emergence, 336 h, 14 days, read-out: Visual Growth Reduction (%) 14 Days After Application EPHHL; for pest or weed control at 35 g/ha: 35 g ai/ha; for pest or weed control at 70 g/ha: 70 g ai/ha; for pest or weed control at 140 g/ha: 140 g ai/ha
Description: as §1, §2, §3

[12] = test system: BRSNN: oilseed rape, canola (Brassica napus); conditions: post-emergence, 336 h, 14 days, read-out: Visual Growth Reduction (%) 14 Days After Application BRSNN; for pest or weed control at 35 g/ha: 35 g ai/ha; for pest or weed control at 70 g/ha: 70 g ai/ha; for pest or weed control at 140 g/ha: 140 g ai/ha
Description: as §1, §2, §3

| Structure (SMILES) | pest or weed control at 35 g/ha [1] [%] | pest or weed control at 70 g/ha [1] [%] | pest or weed control at 140 g/ha [1] [%] | pest or weed control at 35 g/ha [2] [%] | pest or weed control at 70 g/ha [2] [%] | pest or weed control at 140 g/ha [2] [%] | pest or weed control at 35 g/ha [3] [%] | pest or weed control at 70 g/ha [3] [%] | pest or weed control at 140 g/ha [3] [%] | pest or weed control at 35 g/ha [4] [%] | pest or weed control at 70 g/ha [4] [%] | pest or weed control at 140 g/ha [4] [%] | pest or weed control at 35 g/ha [5] [%] | pest or weed control at 70 g/ha [5] [%] | pest or weed control at 140 g/ha [5] [%] | pest or weed control at 35 g/ha [6] [%] | pest or weed control at 70 g/ha [6] [%] | pest or weed control at 140 g/ha [6] [%] | pest or weed control at 35 g/ha [7] [%] | pest or weed control at 70 g/ha [7] [%] | other results |
| --- | --- | --- | --- | --- | --- | --- | --- | --- | --- | --- | --- | --- | --- | --- | --- | --- | --- | --- | --- | --- | --- |
| COC(=O)c1nc(-c2ccc3nsnc3c2F)cc(N)c1Cl [Compound 14] | 0 to 29 | 0 to 29 | 0 to 29 | 30 to 44 | 30 to 44 | 45 to 59 | 0 to 29 | 0 to 29 | 30 to 44 | 0 to 29 | 0 to 29 | 0 to 29 | 0 to 29 | 0 to 29 | 0 to 29 | 45 to 59 | 60 to 74 | 75 to 84 | 0 to 29 | 0 to 29 | pest or weed control at 140 g/ha [7]: 0 to 29%; pest or weed control at 35 g/ha [8]: 0 to 29%; pest or weed control at 70 g/ha [8]: 0 to 29%; pest or weed control at 140 g/ha [8]: 0 to 29%; pest or weed control at 35 g/ha [9]: 0 to 29%; pest or weed control at 70 g/ha [9]: 0 to 29%; pest or weed control at 140 g/ha [9]: 0 to 29%; pest or weed control at 35 g/ha [10]: 0 to 29%; pest or weed control at 70 g/ha [10]: 0 to 29%; pest or weed control at 140 g/ha [10]: 0 to 29%; pest or weed control at 35 g/ha [11]: 60 to 74%; pest or weed control at 70 g/ha [11]: 85 to 94%; pest or weed control at 140 g/ha [11]: 95 to 100%; pest or weed control at 35 g/ha [12]: 0 to 29%; pest or weed control at 70 g/ha [12]: 0 to 29%; pest or weed control at 140 g/ha [12]: 0 to 29% |
| COC(=O)c1nc(-c2ccc3nonc3c2Cl)cc(N)c1Cl [Compound 18] | 0 to 29 | 0 to 29 | 0 to 29 | 95 to 100 | 95 to 100 | 95 to 100 | 0 to 29 | 30 to 44 | 60 to 74 | 0 to 29 | 0 to 29 | 30 to 44 | 0 to 29 | 0 to 29 | 30 to 44 | 75 to 84 | 85 to 94 | 95 to 100 | 0 to 29 | 0 to 29 | pest or weed control at 140 g/ha [7]: 0 to 29%; pest or weed control at 35 g/ha [8]: 0 to 29%; pest or weed control at 70 g/ha [8]: 0 to 29%; pest or weed control at 140 g/ha [8]: 0 to 29%; pest or weed control at 35 g/ha [9]: 0 to 29%; pest or weed control at 70 g/ha [9]: 0 to 29%; pest or weed control at 140 g/ha [9]: 0 to 29%; pest or weed control at 35 g/ha [10]: 0 to 29%; pest or weed control at 70 g/ha [10]: 0 to 29%; pest or weed control at 140 g/ha [10]: 0 to 29%; pest or weed control at 35 g/ha [11]: 0 to 29%; pest or weed control at 70 g/ha [11]: 0 to 29%; pest or weed control at 140 g/ha [11]: 30 to 44%; pest or weed control at 35 g/ha [12]: 60 to 74%; pest or weed control at 70 g/ha [12]: 75 to 84%; pest or weed control at 140 g/ha [12]: 75 to 84% |
